In patent publication US8466311B2, “Neuroprotective compositions and methods” (Sanford-Burnham Medical Research Institute, priority 2006, dated 2013):

What was measured:
[1] = target: T1, bovine serum albumin (BSA) (Bos taurus, UniProt P02769); experiment: Adduct formation with free cysteine of BSA (streptavidin blot); format: binding; details: NEM pretreatment
T1 construct: purchased WAKO Chemicals Inc. (Tokyo, Japan) or Sigma (St. Louis, Mo.)
Protocol: We tested whether the free cysteine of bovine serum albumin (BSA) could form an adduct with NEPP compounds. If carbon #11 on the NEPP compounds binds to this free cysteine of BSA, then pretreatment with N-ethylmaleimide (NEM), in irreversible thiol alkylating agent, would abolish this binding. […] With streptavidin as a probe, we could then detect proteins bound to NEPP6-biotin. In order to study thiols as targets of NEPP binding, BSA (1 μg per lane) was incubated with various concentrations (0-1000 μM) of N-ethylmaleimide (NEM) for 30 minutes at room temperature. Vehicle or NEPP6-biotin (10 μM) in phosphate-buffered saline (PBS) was added and the mixture was incubated at room temperature for 5 h, subjected to sodium dodecyl sulfate polyacrylamide gel electrophoresis (SDS-PAGE), and probed with peroxidase-conjugated streptavidin. The gel was also stained with Coomassie brilliant blue.

AP-1 binding site = experiment: Enhancer element luciferase reporter p3xAP1luc; format: cell-based; details: NEPP11 2 μM
Protocol: Because the E1 and E2 regions also contain other enhancer elements, we tested the effects of NEPP11 (2 μM) on the expression of luciferase activity derived from these elements, including the cAMP-responsive element (CRE; p3xCREluc), AP-1 binding site (p3xAP1luc), NF-κB binding site (p3xNF-κBluc), NFAT-binding site (p3xNFATluc), ETS-binding site (p3xETSluc), and MEF2-binding site (p3xMEF2luc).

HO-1 promoter = HO-1 promoter luciferase reporter in cortical cultures; format: cell-based, rat
Protocol: Next, transcriptional activation of the HO-1 promoter by NEPP was examined by reporter gene assays in primary neurons. Cortical cultures were transfected with reporter cDNAs (1 μg per well), and 0.7 μM NEPP11 was added to the cultures. After a 24 h incubation, cell lysates were subjected to luciferase reporter assays. […] If the Keap1/Nrf2 pathway, indeed, mediates activation of the HO-1 promoter by NEPP11, mutant Nrf2 protein should inhibit this activation. […] Moreover, the selective activation in neurons may explain the relatively small amplitude of total HO-1 activation seen in the mixed neuronal/glial culture system in which glia predominate.

caspase-3 = experiment: NMDA-induced caspase-3 activation; format: cell-based, rat; details: NEPP11 1 μM
Excerpt: Indeed, we found this to be the case.

[2] = system: thioredoxin and glutaredoxin; experiment: Expression of Trx and Grx genes in cortical cultures (RT-PCR); format: cell-based, rat; set-up: expression of the Trx and Grx genes: dose or concentration left out as unconfirmed
Protocol: One caveat to the mechanism of NEPP and other electrophilic compounds acting at the level of Keap1 to induce HO-1 transcription is that NEPP could potentially react indiscriminately with other thiol-containing compounds in cells. To approach this question, we assessed cellular glutathione (GSH) levels to determine whether NEPP11 would affect this abundant antioxidant thiol. Nepp11 or N-ethylmaleimide (NEM) was added at t=0 and levels of total GSH were measured at the indicated times. GSH content of control cortical cultures (set arbitrarily at 100%) was 46.8±4.5 nmol/mg protein. […] In fact, this scenario seems likely, because the Keap1/Nrf2 pathway regulates the expression of γ-GCL in addition to HO-1 (Itoh et al., Mol. Cell. Biol. 24:36-45, 2004). Besides GSH, cells have another major reduction pathway representing the thioredoxin-glutaredoxin system.
Lack of Effect of NEPP Compounds on Expression of Trx and Grx Genes. […]

T1 sequence (P02769 25-607): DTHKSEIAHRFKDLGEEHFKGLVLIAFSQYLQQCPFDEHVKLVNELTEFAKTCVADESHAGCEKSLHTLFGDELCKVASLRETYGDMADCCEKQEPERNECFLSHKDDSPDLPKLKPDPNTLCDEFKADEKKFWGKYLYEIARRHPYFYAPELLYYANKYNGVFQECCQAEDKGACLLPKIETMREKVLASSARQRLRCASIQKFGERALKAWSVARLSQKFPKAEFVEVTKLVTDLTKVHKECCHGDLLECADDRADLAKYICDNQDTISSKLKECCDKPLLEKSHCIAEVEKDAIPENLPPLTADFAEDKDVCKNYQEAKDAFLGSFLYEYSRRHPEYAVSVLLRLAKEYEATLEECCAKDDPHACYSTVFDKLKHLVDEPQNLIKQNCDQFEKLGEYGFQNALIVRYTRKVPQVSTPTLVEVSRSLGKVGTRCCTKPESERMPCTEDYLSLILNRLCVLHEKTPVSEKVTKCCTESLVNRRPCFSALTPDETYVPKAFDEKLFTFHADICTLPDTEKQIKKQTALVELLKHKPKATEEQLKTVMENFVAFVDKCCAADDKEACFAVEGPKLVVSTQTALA

Structure (SMILES) | BSA adduct signal after pretreatment with NEM [1] | activity of p3xAP1luc (AP-1 binding site) | activity of the HO-1 promoter (HO-1 promoter; NEPP11 0.7 μM, 24 h) | HO-1 promoter activation with cotransfection of pNrf2(S40A)-GFP (HO-1 promoter; NEPP11, pNrf-GFP did not affect activation) | NMDA-induced caspase-3 activation (caspase-3) | expression of thioredoxin or glutaredoxin ([2]; NEPP11 1 μM) | expression of the Trx and Grx genes ([2]; NEPP11, 24 hr, RT-PCR)
CC(C)c1cc2c(c(O)c1O)[C@@]1(C(=O)O)CCCC(C)(C)[C@@H]1CC2 [CA, carnosic acid] | depressed the streptavidin signal in a dose-dependent manner |  |  |  |  |  | 
COC(=O)CCCCC/C=C1/C(=O)C=C[C@H]1CCCCCCc1ccc(C)cc1 [NEPP11] |  | slightly depressed | significantly increased | almost completely knocked down | inhibited | did not significantly affect | did not significantly affect
